Data taken from patent US9708628B2, “Cationic lipid having improved intracellular kinetics” (NOF CORPORATION, priority 2011, dated 2017).

How the values were obtained:
liver, lung and spleen = experiment: Gene expression activity in liver, lung and spleen after tail vein administration of MEND; type: in vivo, ICR mice; conditions: 40 μg DNA
Method: A solution of pDNA encoding luciferase gene and protamine (maker) solution were diluted with 10 mM HEPES buffer to 0.3 mg/mL and 0.24 mg/mL, respectively. […] A solution (750 μL) of the electrostatic complex composed of gene and protamine was mixed with the lipid solution (750 μL), and the mixture was quickly stirred, diluted with 10 mM HEPES solution (pH 5.3) to 15 mL, and subjected to ultrafiltration using Amicon® Ultra-15 100K device at 3,000 rpm, 15 min, 25° C. The solution after ultrafiltration was diluted with 100 mM HEPES buffer (pH 7.4), and subjected to the ultrafiltration again. The solution was diluted with 10 mM HEPES buffer to 750 μL. […] The mice were euthanized by a cervical spine […] method 6, 24, 48, 72 hr later, and the liver, lung and spleen were isolated and frozen with liquid nitrogen. They were thawed in a Lysis buffer to prepare homogenates. They were centrifuged at 13,000 rpm, 10 min, 4° C., and the supernatant was collected and used as a measurement sample. The sample solution (20 μL) was mixed with a luciferase substrate (50 μL), and the luciferase activity was measured using Luminescenser-PSN (AB2200 ATTO). In addition, the concentration of the protein in the sample was quantified using a BCA protein assay kit, and the gene expression activity was measured as RLU/mg protein.

liver [1] = experiment: Time course of gene expression activity in the liver (IVIS imaging, total luminescence in abdomen); type: in vivo, ICR mice; conditions: for luminescence / gene expression time course: 40 μg DNA, tail vein
Text: As a DNA to be mounted on MEND composed of B-2 in this case, […]-Luc(0) described in WO 2011/132713 was used as pDNA completely excluding CpG sequence known to induce immune response and, as a general pDNA having a CpG sequence, a plasmid DNA (pcDNA3.1-Luc(+); CpG sequence total 425) containing a CpG sequence in the back bone of the plasmid DNA and having a CpG sequence even between the initiation codon and the stop codon of the luciferase sequence (marker gene) was used. In gene transfer using cationic MEND and in vivo […]-Luc(0) alone was used. 6, 24, 72 hr later, luciferin (in vivo grade, Promega) corresponding to 3 mg was intraperitoneally administered to the mice, and imaging was performed using IVIS LuminaII (Caliper Life Sciences). As for MEND composed of B-2, imaging was performed about twice a week even after 72 hr. The total luminescence amount in the mouse abdomen was calculated as photon/sec from the obtained images, and used as an index of gene expression activity in the liver.

liver [2] = experiment: Intrahepatic behavior of MEND (intravital confocal microscopy); type: in vivo, ICR mice; conditions: Rhodamine-DOPE labeled MEND, 40 μg DNA/mouse, about 10 min filming
Method: Rhodamine-DOPE was added to R8/GALA-MEND in an amount of 0.1% of the total lipid concentration, and to B-2 MEND in an amount of 1% of the total lipid concentration. 50 mg/mL Sodium pentobarbital (Nacalai Tesque) was diluted 5-fold with saline and intraperitoneally administered to ICR mice (5-week-old male) for anesthesia. Griffonia simplicifolia Lectin I-B4 Isolectin, FITC Conjugate (VECTOR Laboratories, about 80 μL) was administered to the mice under anesthesia from the tail vein to stain the vascular endothelial cells. […] A winged intravenous indwelling needle connected with an extension tube filled with the MEND solution was indwelled in the tail vein of the mouse. To prevent dislocation of the observation site due to the heart beat of the mouse, a device for fixing the liver by adsorption (Shimizu K et al., J Biosci Bioeng. 112(5): 508-10) was used, and the mouse was observed using a confocal microscope (Nikon A1) with a 60-fold water immersion lens.

[3] = Particle size and surface potential of siRNA MENDs prepared by t-BuOH injecting method; type: physicochemical; conditions: siRNA MEND, cationic lipid/cholesterol=70/30, DMG-PEG2000 3%
Method: A lipid solution in t-BuOH with a composition of cationic lipid/cholesterol=70/30, DMG-PEG2000 3% and a total lipid amount of 3000 nmol/400 μL (7.5 mM) was prepared in a 1.7 mL tube. In a separate 1.7 mL tube, an siRNA solution was prepared by mixing an siRNA aqueous solution containing siRNA (160 μg) and 20 mM malate buffer (pH 4.00, 30 mM NaCl) to total 50 μL. With vigorous stirring of the lipid solution, the siRNA solution was gradually added dropwise, and the mixed solution was taken in a 1 mL syringe. Then, 20 mM malate buffer (pH 4.00, 30 mM NaCl, 2 mL) was added into a 5 mL tube, and the mixed solution was gradually injected with vigorous stirring. Thereafter, the mixture was further diluted with PBS (7 mL) and centrifuged at 1000 g, 30° C. for 10 min in Amicon Ultra-15-100K to a volume of less than 1.5 mL. PBS (15 mL) was added, and the solution was centrifuged again to about 500-1000 μL. Finally, the MEND solution was adjusted by diluting with PBS to the object lipid concentration.
The particle size and surface potential of various MENDs were measured according to the method described in [Experimental Example 2] and the results are shown in Table 6.

| PDI [3] | size (nm) [3] [nm] | zeta (mV) [3] [mV] | SMILES | gene expression activity in the lung and spleen (organ selectivity) (liver, lung and spleen) | time of peak/maximum gene expression activity (liver, lung and spleen; liver) [h] | time at which luminescence completely disappeared (liver [1]; pCpGfree-Luc(0)) [days] | luminescence / gene expression time course (liver [1]; pCpGfree-Luc(0)) | luminescence / gene expression time course (liver [1]; pcDNA3.1-Luc(+)) | behavior in liver blood vessels (liver [2]) |
| --- | --- | --- | --- | --- | --- | --- | --- | --- | --- |
| – | – | – | CCCCCCCCCCCCCC(=O)OCCCN(C)CCSSCCN(C)CCCOC(=O)CCCCCCCCCCCCC [Example B-2] | background-level | 48 | 18 | luminescence amount increased from 6 hr to 24 hr later, after which the luminescence amount was retained for the subsequent one week | weak luminescence 6 hr later, after which the gene expression decreased | coagulation was not formed and the MEND uniformly flows through the blood vessels |
| 0.076 | 110 | −9.5 | Cc1c(C)c2c(c(C)c1OC(=O)CCC(=O)OCCCN(C)CCSSCCN(C)CCCOC(=O)CCC(=O)Oc1c(C)c(C)c3c(c1C)CCC(C)(CCCC(C)CCCC(C)CCCC(C)C)O3)CCC(C)(CCCC(C)CCCC(C)CCCC(C)C)O2 (stereo not drawn) [Example B-2-5] | – | – | – | – | – | – |
